Measured values taken from PubChem BioAssay (NCI).
Where “and” joins values, the source holds several entries; their conditions need not be identical. Identical values can stand only once.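 Cells were grown in 96-well plates and exposed to each compound for 48 hours at five concentrations; endpoints were interpolated linearly between bracketing concentrations, or set to the highest concentration if not reached. Abbreviation: GI50, concentration required for 50% inhibition of growth. Definition used: TGI = concentration required for complete inhibition of growth.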

Assays:
Assay in all cases: inhibition of tumour cell growth, NCI panel, 48 h
HCC-2998 colon = system: HCC-2998 colon
HL-60(TB) leukemia = system: HL-60(TB) leukemia
HT29 colon = system: HT29 colon
IGROV1 ovarian = system: IGROV1 ovarian
NCI-H226 lung = system: NCI-H226 lung
OVCAR-3 ovarian = system: OVCAR-3 ovarian
OVCAR-8 ovarian = system: OVCAR-8 ovarian
PC-3 prostate = system: PC-3 prostate
SF-295 CNS = system: SF-295 CNS
SN12C renal = system: SN12C renal

| Structure (SMILES) | GI50 (HCC-2998 colon) [µM] | TGI (HCC-2998 colon) | GI50 (HL-60(TB) leukemia) [µM] | TGI (HL-60(TB) leukemia) | GI50 (HT29 colon) [µM] | TGI (HT29 colon) | GI50 (IGROV1 ovarian) [µM] | TGI (IGROV1 ovarian) [µM] | GI50 (NCI-H226 lung) [µM] | TGI (NCI-H226 lung) | GI50 (OVCAR-3 ovarian) [µM] | TGI (OVCAR-3 ovarian) | GI50 (OVCAR-8 ovarian) [µM] | TGI (OVCAR-8 ovarian) | GI50 (PC-3 prostate) [µM] | TGI (PC-3 prostate) [µM] | GI50 (SF-295 CNS) [µM] | TGI (SF-295 CNS) | GI50 (SN12C renal) [µM] | TGI (SN12C renal) |
| --- | --- | --- | --- | --- | --- | --- | --- | --- | --- | --- | --- | --- | --- | --- | --- | --- | --- | --- | --- | --- |
| NCCOCCOCCNc1nc(-c2ccc(Cl)cc2)nc(N2CCN(c3ccccn3)CC2)n1 | 1.75 | 3.29 µM | 2.12 | 4.15 µM | 1.85 | 3.78 µM | 2.81 | 7.04 | 13.7 | 39.9 µM | 2.74 | 6.76 µM | 4.06 | 30.6 µM | 1.89 | 3.92 | 2.35 | 6.46 µM | 6.17 | 20.8 µM |
| CC(C)=CCC(OC(=O)C=C(C)C)C1=CC(=O)c2c(O)ccc(O)c2C1=O (stereo not drawn) | 12.7 | 26.7 µM and 6.44 µM | – | 1.09 µM and 0.79 µM | 2.49 | 8.41 µM and 4.43 µM | – | 4.42 | 1.99 | 4.02 µM and 6.72 µM | 0.5 | 2.07 µM and 2.62 µM | 2.27 | 7.19 µM and 2.98 µM | 1.55 | 8.74 | 2.15 | 20.9 µM and 6.13 µM | 1.9 | 3.94 µM and 2.92 µM |
| COc1ccc(C(O)c2cc3c(N)c(C(=O)Nc4cccc(Cl)c4)sc3nc2C)cc1 (stereo not drawn) | 1.76 | > 35.9 µM | 0.868 | 2.78 µM | 1.08 | > 33.4 µM | 2.52 | > 56 | 1.63 | > 43 µM | 0.843 | 2.34 µM | 1.45 | > 47.8 µM | 1.56 | > 40.4 | 1.12 | > 22.7 µM | 2.02 | > 72.7 µM |
| COc1cc(C)c(C2NC(=O)c3ccccc3N2)cc1C (stereo not drawn) | – | 25.9 µM | – | 0.396 µM | – | 13.6 µM | – | > 100 | – | 16.5 µM | – | 0.518 µM | – | > 66.5 µM | – | 15.6 | – | 22.4 µM | – | > 100 µM |
| C1=C2CCCC3=Cc4ccccc4OC23Oc2ccccc21 | 10.3 | 60.7 µM | 3.24 | > 100 µM | 3.52 | 17.9 µM | 5.36 | > 100 | > 100 | > 100 µM | 3.06 | > 100 µM | 4.04 | > 100 µM | 4 | > 100 | 3.99 | > 100 µM | 4.42 | > 100 µM |
| Cc1c2cc(Cl)c3ccccc3c2c[n+]2ccccc12 | 4.22 | 17.8 µM | 19.2 | 55.3 µM | 14 | 43.1 µM | 9.18 | 60.3 | 1.8 | 14.2 µM | 1.62 | 5.41 µM | 2.42 | 26.7 µM | 2.81 | 20.1 | 0.813 | 6.58 µM | 0.388 | 3.52 µM |
| O=C(NCCc1ccccn1)OCc1nc2nc(Cl)nc(N3CCOCC3)c2[nH]1 | 1.74 | 3.33 µM | 1.83 | 4.96 µM | 1.98 | 6.75 µM | 1.57 | 2.98 | 1.61 | 3.29 µM | 1.26 | 2.73 µM | 3.17 | 15.4 µM | 1.7 | 3.73 | 4.96 | 17.4 µM | 1.5 | 3.19 µM |
